Reference: patent publication US20160324992A1, “IDENTIFICATION AND TREATMENT OF VULNERABLE PLAQUES” (OTTAWA HEART INSTITUTE RESEARCH CORPORATION, priority 2015, published 2016)

Assays:
[1] = test system: RIP3; conditions: BMDMs, pre-treatment with 50 μM DPI
Description: (§1) RNA isolation and quantitative real-time PCR. BMDMs were treated with control media with or without oxLDL or oxLDL+zVAD.fmk for the indicated time points with or without 1 h pre-treatment with 50 μM DPI. Alternatively, BMDMs were polarized to M0, M1 or M2 prior to RNA isolation, as described above. Total RNA was isolated using TRIzol reagent (Invitrogen) as per manufacturer's instructions and cDNA was synthesized using iScript Reverse Transcription kit (BioRad™). Quantitative real-time PCR was performed in triplicate using either the Sso Advanced Universal SYBR Green Supermix (Biorad) or Taqman™ Gene Expression Assay and mRNA level of target genes was normalized to HPRT or β-actin house keeping genes.
as §1, with “uM” for “μM”, “Total RNA was isolated using TRIzol reagent (Invitrogen) as per manufacturer's instructions and cDNA was synthesized using iScript Reverse Transcription kit (BioRad™).” left out, “Taqman®” for “Taqman™”

[2] = test system: MLKL; conditions: BMDMs, pre-treatment with 50 μM DPI
Description: as §1
as §1, with “uM” for “μM”, “Total RNA was isolated using TRIzol reagent (Invitrogen) as per manufacturer's instructions and cDNA was synthesized using iScript Reverse Transcription kit (BioRad™).” left out, “Taqman®” for “Taqman™”

[3] = test system: reactive oxygen species (ROS); conditions: BMDMs pre-incubated with 50 μM DPI, oxLDL or oxLDL+zVAD.fmk 3 h
Description: Measurement of Reactive Oxygen Species (ROS). BMDMs were pre-incubated with DPI for 30 minutes followed by the cell permeant reagent 2′, 7′-dichloroflurescin diacetate (DCFDA) fluorescent dye for 1 h. Cells were then treated with oxLDL or oxLDL+zVAD.fmk and fluorescence was measured at 3 h and 24 h as per manufacturers' instructions (Abcam, ab113851).

[4] = test system: human RIP3 promoter; conditions: RAW macrophages, 50 uM DPI pre-treatment, oxLDL 6 or 24 h
Description: (§2) Promoter Luciferase Assay. Luciferase reporter constructs containing the human MLKL and RIP3 promoters were purchased from SwitchGear Genomics (Carlsbad, CA). RAW264.7 (ATCC) macrophages were plated in 24-well plates in 10% FBS DMEM and transfected using Lipofectamine 2000 (Life Technologies) with MLKL-promoter or RIP3-promoter plasmids (renilla-based luciferase reporter) together with pGL3 basic (firefly-based reporter, Promega) to normalize for transfection efficiency. Twenty-four hours after transfection, cells were treated with or without 100 μg/ml oxLDL as above, for an additional 24 hours. Cells were harvested in lx passive lysis buffer and luciferase measured using the Dual Luciferase Assay (Promega) according to manufacturer's instructions. All experiments were performed in quadruplicate technical replicates at least 3 times.
(§3) Promoter Luciferase Assay. Luciferase reporter constructs containing the human MLKL and RIP3 promoters were purchased from SwitchGear Genomics (Carlsbad, CA). […] Cells were harvested in 1× passive lysis buffer and luciferase measured using the Dual Luciferase Assay (Promega) according to manufacturer's instructions. […]

[5] = test system: human MLKL promoter; conditions: RAW macrophages, 50 uM DPI pre-treatment, oxLDL 6 or 24 h
Description: as §2, §3

[6] = test system: PGAM5; conditions: macrophages, DPI

c1ccc2c(c1)[I+]c1ccccc1-2 [DPI, diphenyleneiodonium]
induction of RIP3 mRNA expression by oxLDL and oxLDL+zVAD.fmk (in words) [1]: inhibited | induction of MLKL mRNA expression by oxLDL and oxLDL+zVAD.fmk (in words) [2]: inhibited | oxLDL-induced production of ROS (in words) [3]: inhibited | oxLDL-induced RIP3 promoter activity (in words) [4]: significantly blunted | oxLDL-induced MLKL promoter activity (in words) [5]: significantly blunted | oxLDL-induced PGAM5 expression (in words) [6]: similarly inhibited
